For orientation: inhibition means the share of the control response that was lost under treatment.

The values below come from ChEMBL document CHEMBL1140196, “Synthesis and biological activities of some new fluorinated coumarins and 1-aza coumarins” (Eur J Med Chem, 2008).

The source made the active and inactive calls. The rule behind the calls is not given here.

Format in all cases: functional
For assay [1], the system named is Escherichia coli. Briefly: Antibacterial activity against Escherichia coli at 50 ug/mL after 48 hrs by cup-plate method.
In assay [2] the test system is Aspergillus niger. Nature of the assay: Antifungal activity against Aspergillus niger at 100 ug/mL after 48 hrs by cup-plate method.
The test system of assay [3] is Macrophomina phaseolina. Nature of the assay: Antifungal activity against Rhizoctonia bataticola at 100 ug/mL after 48 hrs by cup-plate method.
In assay [4] the test system is Aspergillus niger. Briefly: Antifungal activity against Aspergillus niger at 50 ug/mL after 48 hrs by cup-plate method.
Assay [5] deals with Aspergillus niger. Nature of the assay: Antifungal activity against Aspergillus niger at 25 ug/mL after 48 hrs by cup-plate method. To be noted: for zone of inhibition at 25 µg/mL: read-out: IZ.
Assay [6] relates to Macrophomina phaseolina. Nature of the assay: Antifungal activity against Rhizoctonia bataticola at 50 ug/mL after 48 hrs by cup-plate method. To be noted: for zone of inhibition at 50 µg/mL: read-out: IZ.
Assay [7] concerns Escherichia coli. Nature of the assay: Antibacterial activity against Escherichia coli at 100 ug/mL after 48 hrs by cup-plate method.
Assay [8] relates to Macrophomina phaseolina. Nature of the assay: Antifungal activity against Rhizoctonia bataticola at 25 ug/mL after 48 hrs by cup-plate method.
Assay [9] concerns Bacillus. Nature of the assay: Antibacterial activity against […] at 100 ug/mL after 48 hrs by cup-plate method.
For assay [10], the system named is Escherichia coli. Nature of the assay: Antibacterial activity against Escherichia coli at 25 ug/mL after 48 hrs by cup-plate method. To be noted: for zone of inhibition at 25 µg/mL: read-out: IZ.
In assay [11] the test system is Bacillus. Briefly: Antibacterial activity against […] at 50 ug/mL after 48 hrs by cup-plate method.
The subject of assay [12] is Bacillus. Briefly: Antibacterial activity against […] at 25 ug/mL after 48 hrs by cup-plate method. To be noted: for zone of inhibition at 25 µg/mL: read-out: IZ.

As to `O=c1cc(COc2ccc(Br)cc2)c2ccc(Cl)cc2[nH]1`, the inhibition at 50 µg/mL was determined as 30% in the assay with Escherichia coli [1], 35% with Aspergillus niger [4], 31% with Macrophomina phaseolina [6] and 26% in the assay on Bacillus [11]. Besides, the inhibition at 100 µg/mL with Aspergillus niger [2] came out at 60%; in the assay with Macrophomina phaseolina [3], 54%; in the assay with Escherichia coli [7], 50%; in the assay on Bacillus [9], 60%. Also, at 25 µg/mL the inhibition with Aspergillus niger [5] was 18%. In addition, the zone of inhibition at 25 µg/mL with Aspergillus niger [5] was found to be 46 mm. In the assay with Macrophomina phaseolina [6], the zone of inhibition at 50 µg/mL came out at 80 mm. Moreover, the outcome in the assay on Macrophomina phaseolina [8], in the assay with Escherichia coli [10] and with Bacillus [12] was inactive.
Consider `Cc1ccc2c(CNc3ccc(Cl)cc3)cc(=O)oc2c1`, for which the inhibition at 50 µg/mL worked out at 36% in the assay on Escherichia coli [1], 21% in the assay on Aspergillus niger [4], 32% with Macrophomina phaseolina [6] and 34% in the assay on Bacillus [11]. Further, the inhibition at 100 µg/mL with Aspergillus niger [2] came out at 52%; with Macrophomina phaseolina [3] it was 54%; in the assay with Escherichia coli [7], 62%; with Bacillus [9] it was 60%. Further, the result in the assay on Aspergillus niger [5] and with Macrophomina phaseolina [8] was inactive. In addition, the zone of inhibition at 50 µg/mL in the assay with Macrophomina phaseolina [6] was 84 mm. For the same compound, the inhibition at 25 µg/mL in the assay on Escherichia coli [10] and in the assay on Bacillus [12] was 17% throughout. Further, the zone of inhibition at 25 µg/mL in the assay with Escherichia coli [10] and in the assay with Bacillus [12] was 44 mm each time.
Take `O=c1cc(CNc2ccc(F)cc2)c2ccccc2[nH]1`: the inhibition at 50 µg/mL stood at 34% in the assay on Escherichia coli [1], 41% in the assay with Aspergillus niger [4], 36% in the assay with Macrophomina phaseolina [6] and 36% in the assay on Bacillus [11]. Besides, the inhibition at 100 µg/mL in the assay with Aspergillus niger [2] came out at 63%; with Macrophomina phaseolina [3] it was 60%; in the assay with Escherichia coli [7], 57%; in the assay with Bacillus [9], 68%. Further, the inhibition at 25 µg/mL in the assay on Aspergillus niger [5] turned out to be 24%; with Macrophomina phaseolina [8], 21%. For the same compound, in the assay on Aspergillus niger [5], the zone of inhibition at 25 µg/mL was 54 mm. The zone of inhibition at 50 µg/mL in the assay with Macrophomina phaseolina [6] was found to be 90 mm. The result in the assay with Escherichia coli [10] and in the assay with Bacillus [12] was inactive.
As to `CCn1cc(C(=O)O)c(=O)c2cc(F)c(N3CCNCC3)cc21` [NORFLOXACIN], the inhibition at 50 µg/mL in the assay with Escherichia coli [1], in the assay on Aspergillus niger [4], with Macrophomina phaseolina [6] and in the assay with Bacillus [11] was 100% throughout. Also, the inhibition at 100 µg/mL with Aspergillus niger [2], in the assay with Macrophomina phaseolina [3], with Escherichia coli [7] and in the assay on Bacillus [9] was 100% in each case. The inhibition at 25 µg/mL with Aspergillus niger [5], with Macrophomina phaseolina [8], in the assay with Escherichia coli [10] and in the assay with Bacillus [12] was 100% throughout.
Consider `COC1=CC(=O)C[C@@H](C)[C@]12Oc1c(Cl)c(OC)cc(OC)c1C2=O` [GRISEOFULVIN], for which the inhibition at 50 µg/mL in the assay with Escherichia coli [1], in the assay with Aspergillus niger [4], in the assay with Macrophomina phaseolina [6] and in the assay with Bacillus [11] was 100% each time. For the same compound, the inhibition at 100 µg/mL in the assay on Aspergillus niger [2], in the assay with Macrophomina phaseolina [3], with Escherichia coli [7] and with Bacillus [9] was 100% in each case. For the same compound, the inhibition at 25 µg/mL in the assay on Aspergillus niger [5], with Macrophomina phaseolina [8], with Escherichia coli [10] and in the assay on Bacillus [12] was 100% in each case.
For the compound `CN(C)C=O` [DIMETHYLFORMAMIDE], the zone of inhibition at 100 µg/mL in the assay with Aspergillus niger [2] (read-out: IZ), in the assay with Macrophomina phaseolina [3] (read-out: IZ), in the assay with Escherichia coli [7] (read-out: IZ) and with Bacillus [9] (read-out: IZ) was 20 mm throughout. Further, the zone of inhibition at 25 µg/mL with Aspergillus niger [5], with Escherichia coli [10] and with Bacillus [12] was 20 mm in each case. Besides, the zone of inhibition at 50 µg/mL with Macrophomina phaseolina [6] came to 20 mm.
